What all share (assay): NCI tumour cell line growth inhibition, 48 h
The test system of test [1] is SK-MEL-28 melanoma.
Test [2] deals with COLO 205 colon.
Test [3] relates to U251 CNS.
The subject of test [4] is M14 melanoma.
The subject of test [5] is TK-10 renal.
In test [6] the test system is OVCAR-8 ovarian.
Test [7] concerns OVCAR-3 ovarian.
For test [8], the system named is CCRF-CEM leukemia.
Test [9] concerns ACHN renal.
In test [10] the test system is IGROV1 ovarian.

“And” between values parts separate entries of the source, which are not always exact repeats. Equal values may be shown once.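 48-hour exposure; five concentrations; linearly interpolated endpoints. The concentration for 50% growth inhibition is given as GI50. TGI is the concentration that stops growth completely.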

As for `C/C(=N\NC(=O)c1cccnc1)c1cccc(/C(C)=N/NC(=O)c2cccnc2)n1`, the GI50 in [1] is 9.56 µM; in [2], 4.15 µM; in [7], 2.05 µM; in test [8], 3.49 µM; in test [10], 3.74 µM. The TGI in test [1] was over 100 µM; in [2], over 100 µM; in test [3], over 100 µM; in test [4] it was 13.6 µM; in test [5], over 100 µM; in [6], 19.3 µM. The TGI is 47.3 µM in [7], over 100 µM in test [8], 12.2 µM in test [9] and 27.7 µM in [10].
As for `CC(=O)OC1CC(O)CC2=CCC3C4CCC(C(C)(O)C(O)CC5COC(=O)C5C)C4(C)CCC3C21C` (stereo not given), the TGI in [1], in test [2], in test [3], in test [4], in [5] and in test [6] was over 25 µM each time. In addition, the TGI in [7], in test [8], in test [9] and in test [10] was over 25 µM throughout.
On to `O=C1c2cc3c(cc2-c2c1c1ccc(Cl)cc1c(=O)n2C[C@H](O)[C@@H](O)[C@H](O)CO)OCO3`, for which the GI50 is 0.0997 µM in [1]; 0.08 µM in test [2]; under 0.01 µM in test [3]; 0.0292 µM in test [4]; 0.271 µM in [5]; 0.0633 µM in [6]. Further, the GI50 in test [7] is 0.0758 µM; in test [8], under 0.01 µM; in test [9] it was 0.0254 µM; in [10], 0.126 µM. Also, the TGI is 1.16 µM in test [1]; 0.895 µM in test [2]; 0.0505 µM in [3]; 10.1 µM in test [4]; 1.58 µM in test [5]; over 100 µM in test [6]. Moreover, the TGI in test [7] is 0.452 µM; in test [8], 17 µM; in [9], 0.118 µM; in test [10], over 100 µM.
Consider `CC1(C)CCC2(C(=O)OC3OC(CO)C(O)C(O)C3O)CCC3(C)C(=CCC4C5(C)CCC(OC6OC(CO)C(O)C(O)C6O)C(C)(C)C5CCC43C)C2C1` (stereo not given), for which the TGI in test [1] is over 25 µM; in test [2], over 25 µM; in test [3], 10.4 µM; in test [4], over 25 µM; in test [5], over 25 µM; in test [6] it was over 25 µM. Further, the TGI is over 25 µM in test [7], 14 µM in test [8], over 25 µM in test [9] and over 25 µM in test [10].
Turning to `O=[N+]([O-])c1ccc2c(c1)c(N=NC(=S)NC1CCCCC1)c(O)n2CN1CCOCC1`, the TGI turned out to be 25.6 µM in test [1]; 23.4 µM in [2]; 17.3 µM in [3]; 21.8 µM in [4]; 19.4 µM in test [5]; 17.4 µM in test [6]. In addition, the TGI amounted to 20.4 µM in test [7], 2.75 µM in [8], 18 µM in test [9] and 15.4 µM in test [10].
Consider `O=S1(=O)OC(c2ccc(O)cc2)(c2ccc(O)cc2)c2ccccc21`, for which the TGI in test [1], in [2], in test [3], in test [4], in test [5] and in test [6] was over 100 µM throughout. Further, the TGI in test [7], in test [8], in test [9] and in [10] was over 100 µM in each case.
As to `Clc1ccc(Nc2nc(Cl)c3[nH]cnc3n2)cc1Cl`, the TGI was 37.9 µM in [2]; over 100 µM in test [3]; over 100 µM in [4]; over 100 µM in test [5]; over 100 µM in test [6]; 61 µM in test [7]. The results for the TGI in test [8], in test [9] and in test [10] were 48.2 µM, over 100 µM and over 100 µM, respectively.
For the molecule `O=[n+]1c2c(n([O-])c3ccccc31)-c1cccc3cccc-2c13`, the TGI in test [2], in [3], in test [4], in [5], in test [6] and in [7] was over 100 µM in each case. The TGI in test [8] and in test [9] was over 100 µM in each case.
Consider `CCOC(=O)/C(=C\NCC(OCC)OCC)c1nc2ccccc2[nH]1`, for which the TGI is 77 µM in test [1]; 39.6 µM in test [2]; over 100 µM in test [3]; over 100 µM in [4]; over 100 µM in test [5]; over 100 µM in test [6]. Besides, the TGI in [7] was 61.9 µM; in test [8], over 100 µM; in test [9] it was over 100 µM; in test [10] it was over 100 µM.
On to `CCOC(=O)C1CCn2c(nc3c2c(=O)n(C)c(=O)n3C)S1` (stereo not given), for which the TGI in test [3], in test [4], in test [5], in test [6], in test [7] and in [8] was over 100 µM throughout. Moreover, the TGI in test [9] and in [10] was over 100 µM throughout.
On to `N[C@H]1CCN(c2c(F)cc3c(=O)c(C(=O)O)cn4c3c2Oc2cc3c(ccc5ccccc53)cc2-4)C1`, for which the TGI in [2] is 9.28 µM; in [3] it was 5.02 µM; in [4], over 100 µM; in test [5] it was over 100 µM; in test [6] it was over 100 µM; in test [7] it was over 100 µM. The values for the TGI in test [9] and in [10] were 8.06 µM and over 100 µM, respectively.
Consider `CC[C@@]1(O)C(=O)OCc2c1cc1n(c2=O)Cc2c-1nc1ccc(O)cc1c2CC[Si](C)(C)C`, for which the GI50 in test [1] is 0.107 µM. The TGI is over 100 µM in [1]; 1.16 µM in test [2]; 0.0151 µM in test [4]; 0.693 µM and 0.749 µM in test [5]; 0.197 µM in [6]; 0.127 µM in [7]. Moreover, the TGI in [8] amounted to 0.464 µM; in test [9], 0.363 µM; in [10], 0.202 µM.
For `COc1c2c(cc3c1C(O)N1CC[C@]34[C@H]3O[C@H]3[C@H](OC)C[C@@H]14)OCO2` (stereo not given in full), the TGI in [1], in [2], in test [3], in [4], in [5] and in test [6] was over 100 µM in each case. For the same molecule, the TGI in [7] is 38.4 µM; in [8], 14.2 µM; in test [9], over 100 µM; in test [10], over 100 µM.
For the molecule `NCCNc1nc(N2CCCC2)c2nc(Cl)c(NCc3ccccc3)nc2n1`, the TGI in [1] was found to be 3.39 µM; in test [2] it was 3.29 µM; in test [3], 2.87 µM; in [4], 3.16 µM; in test [5], 3.25 µM; in test [7], 4.16 µM. Besides, the TGI in [8] turned out to be 6.87 µM; in test [9], 3.99 µM; in test [10] it was 4.7 µM.
Take `CC1(C)CC(=O)C2=C(C1)NC(SSC1=C(C#N)C(c3ccc(F)cc3)C3=C(CC(C)(C)CC3=O)N1)=C(C#N)C2c1ccc(F)cc1` (stereo not given): the GI50 is 25.8 µg/mL in test [1]; 29.1 µg/mL in test [2]; 15 µg/mL in test [3]; 22.6 µg/mL in test [4]; 23.6 µg/mL in test [5]; 28.8 µg/mL in [6]. For the same molecule, the GI50 in [7] was 25.6 µg/mL; in [8], 34.1 µg/mL; in test [9], 28.7 µg/mL; in test [10], 15 µg/mL. Moreover, the TGI came out at 46.4 µg/mL in [1]; 55.8 µg/mL in test [2]; 15 µg/mL in test [3]; 49.5 µg/mL in test [4]; 46 µg/mL in [5]; 49.9 µg/mL in test [6]. Moreover, the TGI was 46.1 µg/mL in [7], 136 µg/mL in test [8], 53.7 µg/mL in [9] and 15 µg/mL in [10].
Regarding `N#CC(c1ccccc1)N1CCCN(C(C#N)c2ccccc2)C1c1ccccc1O` (stereo not given), the TGI in [1], in test [2], in test [3], in test [4], in test [5] and in [6] was over 100 µM in each case. Moreover, the TGI in [7], in [8], in test [9] and in [10] was over 100 µM in each case.
Take `Nc1ccc2c(c1)C(=O)N(O)C2=O`: the TGI in [1], in test [3], in [4], in test [5], in test [7] and in test [8] was over 100 µM throughout. The TGI in test [9] and in [10] was over 100 µM in each case.
As for `O=C(O)C(CSC(c1ccccc1)(c1ccccc1)c1ccccc1)N=Cc1cccs1` (stereo not given), the TGI in test [1] was over 100 µM; in test [2], 6.49 µM; in [3], over 62.4 µM; in test [4] it was 5.11 µM; in test [5] it was over 100 µM; in test [6], 42.3 µM. In addition, the TGI in [7] is 19.1 µM; in test [8], over 100 µM; in [9], over 100 µM; in [10] it was over 100 µM.
`COC(=O)C1C(C)N1C` (stereo not given): the TGI in [1], in [2], in test [3], in [4], in [5] and in test [6] was over 100 µM throughout. The TGI in test [7], in [8] and in [10] was over 100 µM throughout.
Consider `O=C(CCN1CC2CCC(CC2)C1)c1cccs1`, for which the TGI in test [1] turned out to be 32.5 µM; in test [2] it was 34.7 µM; in test [3], 33.5 µM; in [4], 31.8 µM; in [5] it was 23.3 µM; in test [6], 42.4 µM. The TGI amounted to 58 µM in test [7], 4.81 µM in test [8], 33.6 µM in test [9] and 25.8 µM in test [10].
For the molecule `CCC(C)C1NC(=O)C2CCCN2C(=O)C(CC2CO2)OC(=O)CCNC(=O)C(C)N(C)C(=O)C(C(C)C)N(C)C1=O` (stereo not given), the TGI in test [1] is over 100 µM; in test [2], 47.3 µM; in test [3] it was over 100 µM; in test [4], 0.0179 µM; in test [5], over 100 µM; in test [6], over 100 µM. Moreover, the TGI in test [7], in [9] and in test [10] was over 100 µM throughout.
For the molecule `CS(=O)(=O)c1nc(-c2cc3c(c(S(C)(=O)=O)n2)CCCC3)cc2c1CCCC2`, the TGI in [1] was over 100 µM; in test [2], over 100 µM; in test [3] it was over 100 µM; in [4] it was over 100 µM; in [5] it was over 100 µM; in test [6], over 69.5 µM. Also, the TGI was over 100 µM in test [7], over 100 µM in [8], over 100 µM in test [9] and over 43.5 µM in test [10].
With `C[C@]12CC[C@@H]3c4ccccc4CC[C@H]3[C@@H]1CC[C@@H]2O`, the TGI in test [1], in [2], in test [3], in test [4], in test [5] and in test [6] was over 100 µM in each case. Besides, the TGI in [7], in test [8], in test [9] and in [10] was over 100 µM each time.
Regarding `OCCOCn1cc(Cn2ncc3c(SCc4ccccc4)ncnc32)nn1`, the TGI in [1], in [2], in test [3], in test [4], in test [5] and in test [6] was over 100 µM each time. Moreover, the TGI in test [7], in test [9] and in test [10] was over 100 µM throughout.
In the case of `CC(Sc1ccccc1)C(CO)(CO)[N+](=O)[O-]` (stereo not given), the TGI in test [3] was 26 µM; in test [4], 32.9 µM; in [5], 33.7 µM; in test [6] it was 28.7 µM; in test [7], 29.4 µM; in test [8] it was 7.51 µM. For the same molecule, the figures for the TGI in [9] and in [10] were 30.6 µM and 38 µM, respectively.
